{"source": "paper PMC6667453", "about": "“Opportunistic complexes of E. coli L-asparaginases with citrate anions” (Scientific Reports, 2019)", "type_in_all_cases": "binding", "key": {"[1]": {"target": "T1, EcAII, type II L-asparaginase from Escherichia coli (Escherichia coli, UniProt P00805, D112T/K184T)", "T1 construct": "gene ansB; Met-(His)6-EcAII, N-terminal tag kept; secreted from E. coli triple asparaginase knockout", "T1 sequence (P00805 23-348 D112T/K184T)": "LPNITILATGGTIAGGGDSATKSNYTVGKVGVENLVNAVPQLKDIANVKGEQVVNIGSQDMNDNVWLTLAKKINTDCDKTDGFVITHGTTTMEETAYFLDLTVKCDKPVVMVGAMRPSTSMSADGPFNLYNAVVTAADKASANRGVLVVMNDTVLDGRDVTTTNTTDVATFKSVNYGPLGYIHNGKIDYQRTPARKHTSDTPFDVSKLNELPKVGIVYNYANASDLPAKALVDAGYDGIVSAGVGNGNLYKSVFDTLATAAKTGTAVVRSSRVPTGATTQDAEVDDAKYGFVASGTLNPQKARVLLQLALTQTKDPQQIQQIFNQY", "assay": "X-ray crystal structure", "conditions": "pH 5.0 (also pH 5.6, 6nx7; pH 6.2, 6nx8), 0.17 M citrate, 10 mM L-Asn, 293 K; non-covalent, one of two active sites (protomer B); stabilised by His6-tag of symmetry mate, called an artifact"}, "[2]": {"target": "T2, EcAII, type II L-asparaginase from Escherichia coli (Escherichia coli, UniProt P00805)", "T2 construct": "gene ansB; Met-(His)6-EcAII, N-terminal tag kept; secreted from E. coli triple asparaginase knockout", "T2 sequence (P00805 23-348)": "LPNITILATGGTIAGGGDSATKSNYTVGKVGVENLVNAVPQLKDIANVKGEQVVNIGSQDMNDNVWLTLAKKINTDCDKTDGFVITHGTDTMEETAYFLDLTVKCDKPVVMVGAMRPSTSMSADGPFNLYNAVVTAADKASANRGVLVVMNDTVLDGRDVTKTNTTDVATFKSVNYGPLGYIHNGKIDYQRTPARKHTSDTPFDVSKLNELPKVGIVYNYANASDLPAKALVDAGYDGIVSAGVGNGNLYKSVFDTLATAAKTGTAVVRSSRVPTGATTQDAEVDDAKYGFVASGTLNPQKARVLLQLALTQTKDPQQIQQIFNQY", "assay": "X-ray crystal structure", "conditions": "pH 7.0, 0.17 M ammonium citrate, 17% PEG3350, 100 K; non-covalent, all four active sites"}, "[3]": {"target": "T3, EcAI (AnsA), type I L-asparaginase from E. coli (Escherichia coli, UniProt P0A962)", "T3 construct": "four protomers (two dimers) in the asymmetric unit", "T3 sequence (P0A962 1-338)": "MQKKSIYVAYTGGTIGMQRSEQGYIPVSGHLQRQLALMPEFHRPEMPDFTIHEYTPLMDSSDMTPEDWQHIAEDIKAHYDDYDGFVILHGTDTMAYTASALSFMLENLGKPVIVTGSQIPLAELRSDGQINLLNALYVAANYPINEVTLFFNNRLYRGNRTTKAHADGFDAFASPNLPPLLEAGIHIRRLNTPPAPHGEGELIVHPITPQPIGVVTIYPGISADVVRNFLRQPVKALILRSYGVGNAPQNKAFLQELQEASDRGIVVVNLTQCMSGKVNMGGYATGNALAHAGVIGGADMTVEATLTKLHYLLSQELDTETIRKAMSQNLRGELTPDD", "assay": "X-ray crystal structure, re-refined from deposited data (2p2n)", "conditions": "pH about 4.0 (0.1 M citrate, 1 M NaCl); covalent, acyl-enzyme ester to Thr14 OG1 in active site; re-interpretation of ligand first modelled as L-Asp/L-Asn"}, "[4]": {"target": "T2, EcAII, type II L-asparaginase from Escherichia coli", "assay": "intact-protein LC/MS (electrospray)", "conditions": "pH 4.0, 200 mM citrate; no L-Asp; covalent (addition of citrate minus water)"}}, "note": "Where a name gives a salt, the structure may show the parent alone.", "data": [{"smiles": "O=C(O)CC(O)(CC(=O)O)C(=O)O", "note": "[CIT, citrate]", "values": [{"measurement": "X-ray crystal structure", "setting": "[1]", "result": "maps indicated clearly the presence of a citrate anion in this site"}, {"measurement": "X-ray crystal structure", "setting": "[2]", "result": "The shape of this peak could be unambiguously interpreted as a citrate anion"}, {"measurement": "X-ray crystal structure, re-refined from deposited data (2p2n)", "setting": "[3]", "result": "substitution by citrate anions covalently linked to the side chain of Thr14"}, {"measurement": "% abundance of adduct (+174.0) at 200 mM citrate", "setting": "[4]", "result": 38.1, "unit": "%"}]}]}
